Ten molecules from ChEMBL document CHEMBL6092189, “Synthesis of kanamycin-azole hybrids and investigation of their antifungal activities” (Bioorg Med Chem, 2024) can be followed below.

Converted amounts (≈) assume the structure as drawn. The source made the active and inactive calls. The calls are words filed in the database; no cut-off is given here.

Data set [1] deals with Candida albicans. In words: Antifungal activity against azole-resistant Candida albicans 64124 assessed as inhibition of fungal growth incubated for 48 hrs by two-fold dilution method. The format is functional.
Data set [2] in a line: Cytotoxicity against human HeLa cells assessed as reduction in cell viability incubated for 24 hrs by MTT assay. The format is toxicity, cell-based. A general note: Tetrazolium assays rely on reduction of a dye to a coloured formazan, in cell work by metabolically active cells.
Data set [3] deals with Cryptococcus neoformans. In words: Antifungal activity against Cryptococcus neoformans VR-54 assessed as inhibition of fungal growth incubated for 48 hrs by two-fold dilution assay. In kind it is functional.
Data set [4] has as its system Candida albicans. In words: Antifungal activity against Candida albicans MYA2876 assessed as inhibition of fungal growth incubated for 48 hrs by two-fold dilution method. In kind it is functional.
In data set [5] the test system is Cryptococcus neoformans. In words: Antifungal activity against Cryptococcus neoformans H99 assessed as inhibition of fungal growth incubated for 48 hrs by two-fold dilution method. In kind it is functional.
In data set [6] the test system is Escherichia coli. In words: Antibacterial activity against Escherichia coli ATCC 25922 assessed as inhibition of bacterial growth incubated for 18 hrs by two-fold dilution method. The format is functional.
In data set [7] the test system is Diutina rugosa. Description: Antifungal activity against Candida rugosa 95-967 assessed as inhibition of fungal growth incubated for 48 hrs by two-fold dilution assay. In kind it is functional.
For data set [8], the system named is Candida parapsilosis. Description: Antifungal activity against azole-resistant Candida parapsilosis Cas08-0490 assessed as inhibition of fungal growth incubated for 48 hrs by two-fold dilution method. In kind it is functional. The settings on record: Lodderomyces parapsilosis.
In data set [9] the test system is Candida tropicalis. Description: Antifungal activity against Candida tropicalis 95-41 assessed as inhibition of fungal growth incubated for 48 hrs by two-fold dilution assay. The format is functional.
The subject of data set [10] is Staphylococcus aureus. In words: Antibacterial activity against Staphylococcus aureus ATCC 25923 assessed as inhibition of bacterial growth incubated for 18 hrs by two-fold dilution method. In kind it is functional.
Data set [11] relates to Cell membrane. In words: Induction of membrane permeabilization in azole-resistant Candida parapsilosis Cas08-0490 assessed as pore formation by measuring fluorescence intensity at 256 ug/ml measured after 25 mins by SYTOX Green dye based fluorescence analysis. The settings on record: dose 256.0 µg/ml. In kind it is subcellular.
Data set [12] deals with Cell membrane. Description: Induction of membrane permeabilization in Candida albicans MYA2876 assessed as pore formation by measuring increase in fluorescence intensity at 1/4X MIC measured after 5 mins by SYTOX Green dye based fluorescence analysis.
Data set [13] concerns Cell membrane. In words: Induction of membrane permeabilization in Candida rugosa 95-967 assessed as pore formation by measuring fluorescence intensity at 256 ug/ml measured after 25 mins by SYTOX Green dye based fluorescence analysis. In kind it is subcellular. The following applies: Diutina rugosa, dose 256.0 µg/ml.
Data set [14] deals with Cell membrane. In words: Induction of membrane permeabilization in Candida albicans 64124 assessed as pore formation by measuring increase in fluorescence intensity at 1/4X MIC measured after 5 mins by SYTOX Green dye based fluorescence analysis.
In data set [15] the test system is Candida albicans. Description: Antifungal activity against azole-resistant Candida albicans 64124 assessed as fractional inhibitory concentration index incubated for 48 hrs in presence of kanamycin by microdilution checkerboard assay. The format is functional.
The subject of data set [16] is Diutina rugosa. In words: Antifungal activity against Candida rugosa 95-967 assessed as fractional inhibitory concentration index incubated for 48 hrs in presence of kanamycin by microdilution checkerboard assay. The format is functional. (In general: In broth dilution the organism is exposed to a series of concentrations in liquid medium.)
Data set [17] has as its system Candida parapsilosis. Description: Antifungal activity against azole-resistant Candida parapsilosis Cas08-0490 assessed as fractional inhibitory concentration index incubated for 48 hrs in presence of kanamycin by microdilution checkerboard assay. In kind it is functional.
Data set [18] has as its system Cryptococcus neoformans. Description: Antifungal activity against Cryptococcus neoformans VR-54 assessed as fractional inhibitory concentration index incubated for 48 hrs in presence of kanamycin by microdilution checkerboard assay. In kind it is functional.
Data set [19] deals with Cryptococcus neoformans. In words: Antifungal activity against Cryptococcus neoformans H99 assessed as fractional inhibitory concentration index incubated for 48 hrs in presence of kanamycin by microdilution checkerboard assay. The format is functional.
Data set [20] deals with Candida albicans. Description: Antifungal activity against Candida albicans MYA2876 assessed as fractional inhibitory concentration index incubated for 48 hrs in presence of kanamycin by microdilution checkerboard assay. The format is functional.
Data set [21] has as its system Candida tropicalis. In words: Antifungal activity against Candida tropicalis 95-41 assessed as fractional inhibitory concentration index incubated for 48 hrs in presence of kanamycin by microdilution checkerboard assay. The format is functional.

`Cl.Cl.Cl.Cl.NC[C@H]1O[C@H](O[C@H]2[C@H](O)[C@@H](O[C@H]3O[C@H](Cn4cc(COC(Cn5cncn5)c5ccc(F)cc5F)nn4)[C@@H](O)[C@H](N)[C@H]3O)[C@H](N)C[C@@H]2N)[C@H](O)[C@@H](O)[C@@H]1O` (stereo partly drawn): the minimal inhibitory concentration (MIC) in data set [1], in [3], in data set [4], in [5], in data set [6] and in data set [7] was no less than 256 µg/mL in each case. Moreover, the MIC in data set [8], in [9] and in data set [10] was no less than 256 µg/mL each time. The 50% inhibitory concentration (IC50) – broadly, the concentration that gives 50% inhibition – at 24 h in [2] was greater than 100 µg/mL.

For `Cl.Cl.Cl.Cl.NC[C@H]1O[C@H](O[C@H]2[C@H](O)[C@@H](O[C@H]3O[C@H](Cn4cc(CNC(=O)c5ccc(Cl)cc5)nn4)[C@@H](O)[C@H](N)[C@H]3O)[C@H](N)C[C@@H]2N)[C@H](O)[C@@H](O)[C@@H]1O`, the minimal inhibitory concentration (MIC) (commonly the lowest concentration found to suppress growth) was no less than 256 µg/mL in data set [1]; no less than 256 µg/mL in data set [3]; no less than 256 µg/mL in data set [4]; 128 µg/mL in data set [5]; 128 µg/mL in data set [6]; no less than 256 µg/mL in data set [7]. The values for the minimal inhibitory concentration (MIC) in data set [8], in data set [9] and in [10] were no less than 256 µg/mL, no less than 256 µg/mL and 64 µg/mL, respectively. Also, the IC50 at 24 h in data set [2] is greater than 100 µg/mL.

In the case of `Cl.Cl.Cl.Cl.NC[C@H]1O[C@H](O[C@H]2[C@H](O)[C@@H](O[C@H]3O[C@H](Cn4cc(CNC(=O)c5ccccc5Cl)nn4)[C@@H](O)[C@H](N)[C@H]3O)[C@H](N)C[C@@H]2N)[C@H](O)[C@@H](O)[C@@H]1O`, the MIC is no less than 256 µg/mL in data set [1]; no less than 256 µg/mL in data set [3]; no less than 256 µg/mL in [4]; 64 µg/mL in data set [5]; 128 µg/mL in data set [6]; no less than 256 µg/mL in [7]. Besides, the MIC in [8], in data set [9] and in [10] was no less than 256 µg/mL throughout. The IC50 at 24 h in data set [2] was greater than 100 µg/mL.

On to `Cl.Cl.Cl.Cl.NC[C@H]1O[C@H](O[C@H]2[C@H](O)[C@@H](O[C@H]3O[C@H](Cn4cc(COC(Cn5cncn5)c5ccc(Cl)cc5Cl)nn4)[C@@H](O)[C@H](N)[C@H]3O)[C@H](N)C[C@@H]2N)[C@H](O)[C@@H](O)[C@@H]1O` (stereo partly drawn), for which the MIC is 16 µg/mL in data set [1]; 32 µg/mL in data set [3]; 16 µg/mL in [4]; 16 µg/mL in data set [5]; no less than 256 µg/mL in data set [6]; no less than 256 µg/mL in [7]. Moreover, the values for the MIC in [8], in data set [9] and in data set [10] were no less than 256 µg/mL, 32 µg/mL and 128 µg/mL, respectively. Besides, the result in data set [11] and in data set [13] was inactive. Also, in data set [2], the IC50 at 24 h is greater than 100 µg/mL. For the same molecule, the result in [12] and in data set [14] was Active.

With `Cl.Cl.Cl.Cl.NC[C@H]1O[C@H](O[C@H]2[C@H](O)[C@@H](O[C@H]3O[C@H](Cn4cc(COC(Cn5ccnc5)c5ccc(F)cc5F)nn4)[C@@H](O)[C@H](N)[C@H]3O)[C@H](N)C[C@@H]2N)[C@H](O)[C@@H](O)[C@@H]1O` (stereo partly drawn), the minimum inhibitory concentration (MIC) in data set [1] was 128 µg/mL; in [3], 128 µg/mL; in data set [4] it was 128 µg/mL; in data set [5] it was 64 µg/mL; in data set [6], 64 µg/mL; in data set [7] it was no less than 256 µg/mL. Moreover, the MIC in data set [8] is no less than 256 µg/mL; in data set [9], 8 µg/mL; in [10] it was 64 µg/mL. Moreover, the 50% inhibitory concentration (IC50) at 24 h in data set [2] is greater than 100 µg/mL.

As for `NC[C@H]1O[C@H](O[C@H]2[C@H](O)[C@@H](O[C@H]3O[C@H](CO)[C@@H](O)[C@H](N)[C@H]3O)[C@H](N)C[C@@H]2N)[C@H](O)[C@@H](O)[C@@H]1O` [KANAMYCIN], the MIC is no less than 256 µg/mL in data set [1]; no less than 256 µg/mL in data set [3]; no less than 256 µg/mL in data set [4]; 128 µg/mL (≈ 264 µM) in data set [5]; 4 µg/mL (≈ 8.26 µM) in data set [6]; no less than 256 µg/mL in [7]. In addition, the results for the MIC in [8], in [9] and in data set [10] were no less than 256 µg/mL, no less than 256 µg/mL and 1 µg/mL (≈ 2.06 µM), respectively.

For `Cl.Cl.Cl.Cl.NC[C@H]1O[C@H](O[C@H]2[C@H](O)[C@@H](O[C@H]3O[C@H](Cn4cc(CNC(=O)c5ccc(Cl)cc5Cl)nn4)[C@@H](O)[C@H](N)[C@H]3O)[C@H](N)C[C@@H]2N)[C@H](O)[C@@H](O)[C@@H]1O`, the MIC in data set [1] was no less than 256 µg/mL; in [3], no less than 256 µg/mL; in data set [4], no less than 256 µg/mL; in [5], no less than 256 µg/mL; in data set [6] it was 128 µg/mL; in data set [7], no less than 256 µg/mL. Further, the MIC was no less than 256 µg/mL in data set [8], no less than 256 µg/mL in data set [9] and 128 µg/mL in data set [10]. Also, the IC50 at 24 h in data set [2] is greater than 100 µg/mL.

Take `Cl.Cl.Cl.Cl.NC[C@H]1O[C@H](O[C@H]2[C@H](O)[C@@H](O[C@H]3O[C@H](Cn4cc(COC(Cn5ccnc5)c5ccc(Cl)cc5Cl)nn4)[C@@H](O)[C@H](N)[C@H]3O)[C@H](N)C[C@@H]2N)[C@H](O)[C@@H](O)[C@@H]1O` (stereo partly drawn): the MIC is 32 µg/mL in data set [1]; 64 µg/mL in [3]; 128 µg/mL in data set [4]; 64 µg/mL in data set [5]; no less than 256 µg/mL in data set [6]; no less than 256 µg/mL in data set [7]. Besides, the minimal inhibitory concentration (MIC) in data set [8] was no less than 256 µg/mL; in data set [9] it was 64 µg/mL; in data set [10] it was 128 µg/mL. For the same molecule, the result in data set [11] and in data set [13] was inactive. Moreover, the IC50 at 24 h in [2] is greater than 100 µg/mL. The result in data set [12] and in data set [14] was Active.

With `OC(Cn1cncn1)(Cn1cncn1)c1ccc(F)cc1F` [FLUCONAZOLE], the MIC was no less than 256 µg/mL in data set [1]; 1 µg/mL (≈ 3.27 µM) in data set [3]; 128 µg/mL (≈ 418 µM) in [4]; 1 µg/mL (≈ 3.27 µM) in data set [5]; 8 µg/mL (≈ 26.1 µM) in data set [7]; 16 µg/mL (≈ 52.2 µM) in data set [8]. In addition, the MIC in data set [9] was found to be 2 µg/mL (≈ 6.53 µM).

Consider `OC(Cn1cncn1)c1ccc(Cl)cc1Cl` (stereo not drawn), for which the “fractional inhibitory concentration index (FICI)” value in data set [15] stood at 1; in [16] it was 2.25; in data set [17] it was 2; in [18] it was 1; in data set [19] it was 1; in data set [20] it was 1. In [21], the “fractional inhibitory concentration index (FICI)” value worked out at 1.5. The minimum inhibitory concentration (MIC) in data set [1] was 128 µg/mL (≈ 496 µM); in [3], 32 µg/mL (≈ 124 µM); in data set [4], 64 µg/mL (≈ 248 µM); in [5], 64 µg/mL (≈ 248 µM); in [7] it was 64 µg/mL (≈ 248 µM); in data set [8], 64 µg/mL (≈ 248 µM). The MIC in data set [9] came to 32 µg/mL (≈ 124 µM).
